Article PMC5727211, “Development of Erasin: a chromone-based STAT3 inhibitor which induces apoptosis in Erlotinib-resistant lung cancer cells” (Scientific Reports, 2017)
Read-outs that look alike come from different tables or passages of the source.

Assays:
STAT3 SH2 domain = STAT3 SH2 domain (Homo sapiens, UniProt P40763); assay: FP-based competitive binding assay, STAT3 SH2 domain
Protocol: (§1) The STAT family display a high degree of homology. […] Vilsmeyer-Haack formylation of 2-hydroxy acetophenones led to 3-formyl chromones, which were subsequently converted to the acyl hydrazones by reaction with hydrazides (Fig. 1). The target molecules were tested for their abilities to inhibit binding of fluorophore-labeled peptides to the SH2 domains of STAT1[24], STAT3[25], and STAT5b[26] in assays based on fluorescence polarization (FP). The more distantly related SH2 domain of the tyrosine kinase Lck served as additional specificity control[27],[28].
Assays were performed essentially as described. In brief, protein was incubated with the test compounds for 1 h at room temperature at the following protein concentrations: STAT1: 400 nM, STAT3: 210 nM, STAT5b: 300 nM, Lck SH2: 35 nM. Subsequently, the corresponding fluorophore-labeled peptide was added: STAT1: (5-carboxyfluorescein)-GpYDKPHVL-OH, derived from the interferon-γ receptor[24]; STAT3: (5-carboxyfluorescein)-GpYLPQTV-NH2, derived from the gp130 subunit of the IL-6 receptor[25]; STAT5b: (5-carboxyfluorescein)-GpYLVLDKW-OH, derived from the erythropoietin receptor[26]; Lck SH2: (5-carboxyfluorescein)-GpYEEIP-OH, derived from the middle-T antigen. After a further hour of incubation, fluorescence polarization was measured in a plate reader (Tecan Infinite F500). Apparent IC50 data shown in Tables 1, 2, and S1 and the inhibition curves shown in Fig. 2a correspond to this time point. The majority of the pipetting work was carried out using a Biomek FXp workstation (Beckman-Coulter). […]

STAT5b SH2 domain = biological target: T1, STAT5b SH2 domain (Homo sapiens, UniProt P51692); assay: FP-based competitive binding assay, STAT5b SH2 domain; details: at 80 µM, mean ± s.d., three experiments
T1 sequence (P51692 1-787): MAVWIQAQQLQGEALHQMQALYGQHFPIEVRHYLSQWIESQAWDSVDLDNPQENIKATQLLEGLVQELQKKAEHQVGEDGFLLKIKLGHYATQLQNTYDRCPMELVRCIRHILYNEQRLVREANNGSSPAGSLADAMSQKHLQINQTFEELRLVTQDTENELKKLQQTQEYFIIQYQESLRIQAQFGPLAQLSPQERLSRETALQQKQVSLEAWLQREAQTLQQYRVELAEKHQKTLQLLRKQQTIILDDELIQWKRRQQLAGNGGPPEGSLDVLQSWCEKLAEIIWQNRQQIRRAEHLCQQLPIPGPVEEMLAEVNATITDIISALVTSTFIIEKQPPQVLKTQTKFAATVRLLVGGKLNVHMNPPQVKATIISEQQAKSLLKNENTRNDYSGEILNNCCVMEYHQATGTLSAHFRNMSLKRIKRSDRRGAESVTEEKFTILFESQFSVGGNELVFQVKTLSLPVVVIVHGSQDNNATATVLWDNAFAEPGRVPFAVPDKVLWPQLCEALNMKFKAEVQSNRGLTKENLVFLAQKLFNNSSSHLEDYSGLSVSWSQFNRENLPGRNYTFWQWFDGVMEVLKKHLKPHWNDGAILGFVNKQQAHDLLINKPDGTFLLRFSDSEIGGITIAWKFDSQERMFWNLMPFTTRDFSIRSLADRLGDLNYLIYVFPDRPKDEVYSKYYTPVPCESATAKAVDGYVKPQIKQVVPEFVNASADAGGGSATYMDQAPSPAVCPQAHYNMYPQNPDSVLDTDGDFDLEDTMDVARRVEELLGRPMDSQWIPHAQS
Protocol: as §1
Assays were performed essentially as described. In brief, protein was incubated with the test compounds for 1 h at room temperature at the following protein concentrations: STAT1: 400 nM, STAT3: 210 nM, STAT5b: 300 nM, Lck SH2: 35 nM. Subsequently, the corresponding fluorophore-labeled peptide was added: STAT1: (5-carboxyfluorescein)-GpYDKPHVL-OH, derived from the interferon-γ receptor[24]; STAT3: (5-carboxyfluorescein)-GpYLPQTV-NH2, derived from the gp130 subunit of the IL-6 receptor[25]; STAT5b: (5-carboxyfluorescein)-GpYLVLDKW-OH, derived from the erythropoietin receptor[26]; Lck SH2: (5-carboxyfluorescein)-GpYEEIP-OH, derived from the middle-T antigen. After a further hour of incubation, fluorescence polarization was measured in a plate reader (Tecan Infinite F500). Apparent IC50 data shown in Tables 1, 2, and S1 and the inhibition curves shown in Fig. 2a correspond to this time point. The majority of the pipetting work was carried out using a Biomek FXp workstation (Beckman-Coulter). Buffer composition: 10 mM Tris pH 8.0, 50 mM NaCl, 1 mM EDTA, 1 mM dithiothreitol (DTT), 0.1% Nonidet P-40, and 2% DMSO.

[1] = system: STAT3 Tyr705 phosphorylation; assay: Western Blot, STAT3 Tyr705 phosphorylation in parental HCC-827 cells; assay type: cell-based, human; details: 24 h
Protocol: (§2) HepG2 cells were plated in 6-well plates (Corning #3516) and allowed to reach approximately 60% confluence. The medium was then replaced with serum-free medium for 24 h. Cells were subsequently pre-treated with compound or DMSO (final DMSO concentration: 0.2%) for 1 h at 37 °C, prior to stimulation for 15 min with 50 ng/mL IFNγ (Pepro Tech, for STAT1 phosphorylation), or 30 min with 50 ng/mL IL-6 (Pepro Tech, for STAT3 phosphorylation). Cells were treated with test compound or DMSO for 1 h (final DMSO concentration 0.2%). K562 cells (1.5 × 10^6 cells per well) were seeded in 6-well plates (Corning #3516) and were treated with test compound or DMSO for 1.5 h (final DMSO concentration 0.2%). […] Afterwards, cells were treated with the test compounds or DMSO (final DMSO concentration: 0.2%) for 24 h. Afterwards, the cells were washed twice with cold phosphate buffered saline (PBS). […]
(§3) Lysates were separated on a polyacrylamide gel under denaturing conditions, and transferred to a nitrocellulose membrane. STAT phosphorylation was assessed using rabbit monoclonal antibodies against the phosphorylated forms only of STAT1, STAT3 or STAT5 (Cell Signaling, 1:1000) with secondary antibody swine anti-rabbit HRP from Dako, 1:3000), followed by reblotting with rabbit monoclonal antibodies against total STAT1, STAT3 or STAT5 (Cell Signaling), and subsequently β-actin loading control. […]

[2] = system: STAT3 Tyr705 phosphorylation; assay: Western Blot, STAT3 Tyr705 phosphorylation in Erlotinib-resistant HCC-827 cells; assay type: cell-based, human; details: 24 h
Protocol: as §2, §3

Sequence of STAT3 SH2 domain (P40763 whole entry, the tested form may be a part): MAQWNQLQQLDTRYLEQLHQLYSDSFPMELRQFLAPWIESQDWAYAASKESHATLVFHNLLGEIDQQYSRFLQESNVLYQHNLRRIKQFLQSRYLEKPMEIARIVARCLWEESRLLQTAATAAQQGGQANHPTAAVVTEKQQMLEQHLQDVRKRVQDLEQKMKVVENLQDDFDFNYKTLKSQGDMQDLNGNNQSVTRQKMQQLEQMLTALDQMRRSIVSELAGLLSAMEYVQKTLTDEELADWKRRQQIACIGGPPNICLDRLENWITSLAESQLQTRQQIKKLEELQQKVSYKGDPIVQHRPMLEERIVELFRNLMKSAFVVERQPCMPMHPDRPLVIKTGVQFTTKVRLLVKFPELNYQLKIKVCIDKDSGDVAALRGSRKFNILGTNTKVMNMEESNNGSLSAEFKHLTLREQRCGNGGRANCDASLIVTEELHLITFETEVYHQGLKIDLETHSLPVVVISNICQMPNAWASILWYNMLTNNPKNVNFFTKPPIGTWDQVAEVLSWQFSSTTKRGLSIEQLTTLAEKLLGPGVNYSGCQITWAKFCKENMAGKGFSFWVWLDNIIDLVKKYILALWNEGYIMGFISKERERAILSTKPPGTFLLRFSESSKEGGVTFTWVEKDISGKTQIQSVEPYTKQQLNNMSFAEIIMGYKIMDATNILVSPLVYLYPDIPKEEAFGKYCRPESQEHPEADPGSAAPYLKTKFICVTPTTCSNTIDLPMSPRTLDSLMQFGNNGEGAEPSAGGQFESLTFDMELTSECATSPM

Structure (SMILES) | inhibition at 80 µM (STAT3 SH2 domain; at 80 µM, mean ± s.d., three experiments) | STAT5b inhibition (STAT5b SH2 domain) | STAT3 Tyr705 phosphorylation [1] | STAT3 Tyr705 phosphorylation [2] | IC50 (STAT3 SH2 domain; 1 h with protein, then 1 h with peptide, mean ± s.d., three experiments, read-out: STAT3 app. IC50) | effect of omission of DTT from assay buffer on inhibitory activity against STAT3 (STAT3 SH2 domain; 2 h of incubation, without DTT) | IC50 (STAT3 SH2 domain; after 9 h, read-out: apparent IC50 against wild-type STAT3 after 9 h) | inhibition at 80 µM (STAT5b SH2 domain)
CCC(C)(C)c1ccc2occ(/C=N/NC(=O)c3cccnc3)c(=O)c2c1 [Compound 9] | 45 ± 5% | no inhibition at 80 µM | did not reduce STAT3 Tyr705 phosphorylation | did not reduce STAT3 Tyr705 phosphorylation |  |  |  | 
CC(C)(C)c1ccc2occ(/C=N/NC(=O)c3cccnc3)c(=O)c2c1 [Compound 8] |  |  | dose-dependent inhibitory effect | dose-dependent inhibitory effect | 9.7 ± 1.8 µM | does not significantly increase the inhibitory activity | 2.8 µM | 32 ± 2%
